From patent publication US10179773B2, “Isoxazole carboxamides as irreversible SMYD inhibitors” (EPIZYME, INC., priority 2014, dated 2019)

Tests used:
SMYD3 [1] = target: T1, SMYD3 (Homo sapiens (Human), UniProt Q9H7B4); experiment: SMYD3 Cell Assay (Trimethyl-MEKK2 In-Cell Western, 293T/17 cells); assay type: cell-based; conditions: 293T/17 cells transfected with MEKK2-flag and SMYD3; 24 hours; trimethyl-MEKK2 signal; average of n = 1 to n = 50
From the text: 293T/17 adherent cells were purchased from ATCC (American Type Culture Collection), Manassas, Va., USA. MEM/Glutamax medium, Optimem Reduced Serum medium, penicillin-streptomycin, 0.05% trypsin and 1× D-PBS were purchased from Life Technologies, Grand Island, N.Y., USA. PBS-10× was purchased from Ambion, Life Technologies, Grand Island, N.Y., USA. PBS with Tween 20 (PBST (10×)) was purchased from KPL, Gaithersburg, Md., USA. Tet System FBS-approved FBS US Source was purchased from Clontech, Mountain View, Calif., USA. Odyssey blocking buffer, 800CW goat anti-rabbit IgG (H+L) antibody, 680CW Goat anti-mouse IgG (H+L) and Licor Odyssey infrared scanner were purchased from Licor Biosciences, Lincoln, Nebr., USA. Tri-methyl-Lysine [A260]-MEKK2 antibody, MEKK2 and SMYD3 plasmids were made at Epizyme. Anti-flag monoclonal mouse antibody was purchased from Sigma, St. Louis, Mo., USA. Methanol was purchased from VWR, Franklin, Mass., USA. 10% Tween 20 was purchased from KPL, Inc., Gaithersburg, Md., USA. Fugene was purchased from Promega, Madison, Wis., USA. The Biotek ELx405 was purchased from BioTek, Winooski, Vt., USA. The multidrop combi was purchased from Thermo Scientific, Waltham, Mass., USA.
293T/17 adherent cells were maintained in growth medium (MEM/Glutamax medium supplemented with 10% v/v Tet System FBS and cultured at 37° C. under 5% CO2.
293T/17 cells were seeded in assay medium at a concentration of 33,333 cells per cm^2 in 30 mL medium per T150 flask and incubated at 37° C. under 5% CO2. Plasmids were prepared for delivery to cells by first mixing 1350 μL Opti-MEM with Fugene (81 μL) in a sterile Eppendorf and incubated for five minutes at room temperature (RT). MEKK2-flag (13.6 ug/T150) MEKK2 p3XFlag-CMV-14 with C-3XFlag and SMYD3 (0.151 ug/T150) SMYD3 p3XFlag-CMV-14 without C-3XFlag plasmids were aliquotted to a 1.7 mL sterile microfuge tube. The gene ID for MEKK2 and SMYD3 is NM_006609.3 and Q9H7B4, respectively. Entire volume of Opti-MEM/Fugene mixture was then added to a microfuge tube containing DNA plasmid, mixed and then incubated ×15 minutes at RT. The medium on the 293T/17 cells was refreshed, and the DNA/Fugene complex is added aseptically to each flask, rocked gently, and incubated at 37 C for 5 hours. Medium was then removed, and cells were washed once with PBS in the flask. Trypsin 0.05% (3 mL) was added and cells incubated for three minutes. Room temperature MEM+10% Tet system FBS was added and cells were mixed gently, and counted using the Vi-cell. Cells were seeded at 100,000 cells/mL in 50 μL MEM/10% Tet FBS/Pen/Strep to a 384 well black/clear poly-D-lysine coated plate containing test agent diluted in DMSO. The final top concentration of test compound was 40 μM. […] Plates were incubated×30 minutes at RT in low-airflow area, followed by incubation at 37° C. under 5% CO2 for 24 hours. Medium was aspirated from all wells of assay plates prior to fixation and permeabilization with ice cold (−20° C.) methanol (90 μL/well) for ten minutes. Plates were rinsed with PBS three times on BioTek ELx405. PBS was removed with a final aspiration, and Odyssey blocking buffer (50 μL/well) was added to each well and incubated for one hour at RT. Primary antibody solution was prepared (anti-trimethyl-MEKK2 at 1:600 dilution plus mouse anti-flag antibody at 1:10,000 dilution in diluent (Odyssey Blocking buffer+0.1% Tween 20)) and 20 μL per well was dispensed using the Multidrop Combi. Assay plates were then sealed with foil, and incubated overnight at 4° C. Plates were washed five times with PBS-Tween (1×) on Biotek ELx405 and blotted on paper towel to remove excess reagent. […]

SMYD3 [2] = target: T1, SMYD3; experiment: SMYD3 Biochemical Assay (MEKK2 protein substrate, 3H-SAM, SPA); conditions: 30 min preincubation with SMYD3, average of n = 1 to n = 50, read-out: SMYD3 Biochem IC50
From the text: S-adenosylmethionine (SAM), S-adenosylhomocysteine (SAH), Tris, Tween20, dimethylsulfoxide (DMSO), bovine skin gelatin (BSG), and Tris(2-carboxyethyl)phosphine hydrochloride solution (TCEP) were purchased from Sigma-Aldrich at the highest level of purity possible. ^3H-SAM was purchase from American Radiolabeled Chemicals with a specific activity of 80 Ci/mmol. 384-well opaque white OptiPlates and SPA beads (Perkin Elmer, catalog # RPNQ0013) were purchased from PerkinElmer.
N-terminally GST-tagged MEKK2 (MAP3K2) protein corresponding to reference sequence AAF63496.3 was purchased from Life Technologies (catalog # PV4010). This protein was expressed in High Five insect cells and purified to >85% purity. Protein identity was confirmed by MS/MS analysis after proteolytic digestion. The protein sequence used was:
Full-length human SMYD3 isoform 1 (BAB86333) was inserted into a modified pET21b plasmid containing a His6 tag and TEV and SUMO cleavage sites. Because two common variants of SMYD3 exist in the population, site directed mutagenesis was subsequently performed to change amino acid 13 from an asparagine to a lysine, resulting in plasmid pEPZ533. A lysine at position 13 conforms to the more commonly occurring sequence (NP_001161212).
E. coli (BL21 codonplus RIL strain, Stratagene) were transformed with plasmid pEPZ553 by mixing competent cells and plasmid DNA and incubating on ice for 30 minutes followed by heat shock at 42° C. for 1 minute and cooling on ice for 2 minutes. Transformed cells were grown and selected on LB agar with 100 μg/mL ampicillin and 17 μg/mL chloramphenicol at 37° C. overnight. A single clone was used to inoculate 200 mL of LB medium with 100 μg/mL ampicillin and 17 μg/mL chloramphenicol and incubated at 37° C. on an orbital shaker at 180 rpm. Once in log growth, the culture was diluted 1:100 into 2 L of LB medium and grown until OD600 was about 0.3 after which the culture was incubated at 15° C. and 160 rpm. Once OD600 reached about 0.4, IPTG was added to a final concentration of 0.1 mM and the cells were grown overnight at 15° C. and 160 rpm. Cells were harvested by centrifugation at 8000 rpm, for 4 minutes at 4° C. and stored at −80° C. for purification.
Expressed full-length human His-tagged SMYD3 protein was purified from cell paste by Nickel affinity chromatography after equilibration of the resin with Buffer A (25 mM Tris, 200 mM NaCl, 5% glycerol, 5 mM β-mercaptoethanol, pH7.8). The column was washed with Buffer B (Buffer A plus 20 mM imidazole) and His-tagged SMYD3 was eluted with Buffer C (Buffer A plus 300 mM imidazole). The His tag, TEV and SUMO cleavage sites were removed generating native SMYD3 by addition of ULP1 protein at a ratio of 1:200 (ULP1:SMYD3). Imidazole was removed by dialysis overnight in Buffer A. The dialyzed solution was applied to a second Nickel column and the native SMYD3 protein was collected from the column flow-through. The flow-through was dialyzed in Buffer D (25 mM Tris, 5% glycerol, 5 mM β-mercaptoethanol, 50 mM NaCl, pH7.8) and ULP1 was removed using a Q sepharose fast flow column. SMYD3 was eluted in Buffer A and further purified using an S200 size-exclusion column equilibrated with Buffer A. SMYD3 was concentrated to 2 mg/mL with a final purity of 89%.
The assays were all performed in a buffer consisting of 25 mM Tris-Cl pH 8.0, 1 mM TCEP, 0.005% BSG, and 0.005% Tween 20, prepared on the day of use. Compounds in 100% DMSO (1 ul) were spotted into a 384-well white opaque OptiPlate using a Bravo automated liquid handling platform outfitted with a 384-channel head (Agilent Technologies). DMSO (1 ul) was added to Columns 11, 12, 23, 24, rows A-H for the maximum signal control and 1 ul of SAH, a known product and inhibitor of SMYD3, was added to columns 11, 12, 23, 24, rows I-P for the minimum signal control. A cocktail (40 ul) containing the SMYD3 enzyme was added by Multidrop Combi (Thermo-Fisher). […]

T1 sequence (Q9H7B4 whole entry): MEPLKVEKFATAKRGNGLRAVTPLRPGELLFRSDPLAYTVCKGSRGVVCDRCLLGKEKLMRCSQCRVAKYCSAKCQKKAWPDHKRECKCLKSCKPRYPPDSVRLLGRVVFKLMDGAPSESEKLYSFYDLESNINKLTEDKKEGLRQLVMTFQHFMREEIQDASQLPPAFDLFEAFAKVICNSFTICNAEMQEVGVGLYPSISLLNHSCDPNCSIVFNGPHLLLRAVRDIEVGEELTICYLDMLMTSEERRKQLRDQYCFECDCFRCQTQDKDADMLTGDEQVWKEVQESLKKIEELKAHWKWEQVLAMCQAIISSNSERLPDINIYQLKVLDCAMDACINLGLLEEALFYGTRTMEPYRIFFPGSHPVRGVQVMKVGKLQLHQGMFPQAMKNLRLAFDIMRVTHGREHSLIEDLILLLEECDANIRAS

| SMILES | IC50 (SMYD3 [1]) [µM] | IC50 (SMYD3 [2]) [µM] |
| --- | --- | --- |
| C=CC(=O)N1CCC(NC(=O)c2cc(C3CC3)on2)CC1 [Cpd. No. 5, N-(1-acryloylpiperidin-4-yl)-5-cyclopropylisoxazole-3-carboxamide] | > 10 | > 100 |
| C=CS(=O)(=O)N1CCC(NC(=O)c2cc(C3CC3)on2)C1 (centres unmarked) [compound 10, 5-cyclopropyl-N-(1-(vinylsulfonyl)pyrrolidin-3-yl) isoxazole-3-carboxamide] |  | > 50 |
| C=CS(=O)(=O)N1CCC(NC(=O)c2cc(C3CC3)on2)CC1 [compound 9, 5-cyclopropyl-N-(1-(vinylsulfonyl)piperidin-4-yl) isoxazole-3-carboxamide] |  | 31.7 |
| C=CC(=O)N[C@H]1CC[C@H](NC(=O)c2cc(C3CC3)on2)CC1 [compound 3, N-((1r,4r)-4-acrylamidocyclohexyl)-5-cyclopropylisoxazole-3-carboxamide] | > 10 | 74.1 |
| C=CS(=O)(=O)N[C@H]1CC[C@H](NC(=O)c2cc(C3CC3)on2)CC1 [Cpd. No. 2, 5-cyclopropyl-N-((1r,4r)-4-(vinylsulfonamido)cyclohexyl) isoxazole-3-carboxamide] |  | 31 |
| O=C(NC1CCN(C(=O)CCl)CC1)c1cc(C2CC2)on1 [Cpd. No. 4, N-(1-(2-chloroacetyl)piperidin-4-yl)-5-cyclopropylisoxazole-3-carboxamide] | 6.65 | 33.5 |
| C=CS(=O)(=O)N[C@H]1CC[C@@H](NC(=O)c2cc(C3CC3)on2)CC1 [compound 8, 5-cyclopropyl-N-((1s,4s)-4-(vinylsulfonamido)cyclohexyl) isoxazole-3-carboxamide] | > 10 | > 10 |
| C=CS(=O)(=O)N1CCC(NC(=O)c2cc(C3CC3)on2)C[C@H]1C (stereo partly drawn) [compound 7, 5-cyclopropyl-N-((2R)-2-methyl-1-(vinylsulfonyl)piperidin-4-yl) isoxazole-3-carboxamide] | 2.19 | 3.68 |
| C=CS(=O)(=O)N1CCC(NC(=O)c2cc(C3CC3)on2)C[C@@H]1C (stereo partly drawn) [compound 6, 5-cyclopropyl-N-((2S)-2-methyl-1-(vinylsulfonyl)piperidin-4-yl) isoxazole-3-carboxamide] | 2.12 | 5.27 |
| C=CS(=O)(=O)N1CC(NC(=O)c2cc(C3CC3)on2)C1 [Cpd. No. 1, 5-cyclopropyl-N-(1-(vinylsulfonyl)azetidin-3-yl) isoxazole-3-carboxamide] | > 10 | > 10 |
